Series [1] can be described thus: Half life in 80% human plasma at 10^-5 M by HPLC analysis. The class given is ADME, cell-free.
The nature of series [2]: Half life in phosphate buffer assessed as mushroom tyrosinase-mediated prodrug conversion at 10^-5 M at pH 7.4 by HPLC analysis. The class given is ADME. Conditions: agaricus bisporus, pH 7.4, 10 µM.
A short description of series [3]: Chemical stability in PBS buffer at 10^-5 M at pH 7.4 after 15 days by HPLC analysis. The class given is physicochemical. Conditions: pH 7.4, 360 h, 10 µM.
Series [4] can be described thus: Octanol-phosphate buffer apparent partition coefficient, log P of the compound at pH7.4 after 30 mins by HPLC analysis. The class given is physicochemical. Conditions: pH 7.4.
A short description of series [5]: Half life in PBS buffer at 10^-5 M at pH 7.4 by HPLC analysis. The class given is ADME.
Series [6] can be described thus: Stability in phosphate buffer assessed as mushroom tyrosinase-mediated prodrug conversion at 10^-5 M at pH 7.4 after 1 hr by HPLC analysis in presence of mushroom tyrosinase. The class given is ADME. Conditions: agaricus bisporus, pH 7.4, 1 h, 10 µM.
Series [7] concerns MNT1. The series can be described thus: Induction of apoptosis in human MNT1 cells assessed as apoptotic/necrotic cells after 48 hrs by APC-labeled annexin V and 7-AAD staining-based flow cytometric analysis. The class given is functional, cell-based. (Flow cytometry measures light scatter and fluorescence of single cells or particles in a stream.)
Series [8] is described as follows: (§1) Induction of apoptosis in human MNT1 cells assessed as apoptotic/necrotic cells at 50 uM after 48 hrs by APC-labeled annexin V and 7-AAD staining-based flow cytometric analysis relative to control. The class given is functional.
Series [9] in a line: (§2) Induction of apoptosis in human MNT1 cells assessed as apoptotic/necrotic cells at 100 uM after 48 hrs by APC-labeled annexin V and 7-AAD staining-based flow cytometric analysis relative to control. The class given is functional.
The subject of series [10] is M8. Put plainly: Induction of apoptosis in human M8 cells assessed as apoptotic/necrotic cells at 50 to 100 uM after 48 hrs by APC-labeled annexin V and 7-AAD staining-based flow cytometric analysis. The class given is functional, cell-based.
The subject of series [11] is SK-MEL-30. The series can be described thus: Induction of apoptosis in human SK-MEL-30 cells assessed as apoptotic/necrotic cells at 100 uM after 48 hrs by APC-labeled annexin V and 7-AAD staining-based flow cytometric analysis relative to control. The class given is functional.
In series [12] the test system is SK-MEL-30. The series can be described thus: Induction of apoptosis in human SK-MEL-30 cells assessed as apoptotic/necrotic cells at 50 uM after 48 hrs by APC-labeled annexin V and 7-AAD staining-based flow cytometric analysis relative to control. The class given is functional.
Series [13] concerns MNT1. The description is as §1. The class given is functional.
In series [14] the test system is MNT1. The series is described as §2. The class given is functional.
Substrate in series [15]: COC(=O)c1ccc(/N=N/N(C)C(=O)[C@H](Cc2ccc(O)cc2)NC(C)=O)cc1
The series can be described thus: (§3) Ratio of Kcat to Km for mushroom tyrosinase. Conditions: Agaricus bisporus.

Substrate in series [16]: CC(=O)N[C@@H](Cc1ccc(O)cc1)C(=O)N(C)/N=N/c1ccc(C#N)cc1
The description is as §3. Conditions: Agaricus bisporus.

Substrate in series [17]: COC(=O)c1ccc(/N=N/N(C)C(=O)[C@H](Cc2ccc(O)cc2)NC(C)=O)cc1
Put plainly: (§4) Activity at mushroom tyrosinase by Michaelis-Menten plot analysis. Conditions: Agaricus bisporus.

Substrate in series [18]: NCCc1ccc(O)c(O)c1
The description is as §4. Conditions: Agaricus bisporus.

Substrate in series [19]: N[C@@H](Cc1ccc(O)cc1)C(=O)O
The series is described as §4. Conditions: Agaricus bisporus.

Substrate in series [20]: NCCc1ccc(O)cc1
The description is as §4. Conditions: Agaricus bisporus.

Substrate in series [21]: CC(=O)N[C@@H](Cc1ccc(O)cc1)C(=O)N(C)/N=N/c1ccc(C#N)cc1
Described as §4. Conditions: Agaricus bisporus.

Activity calls are given as the source filed them. The calls are words filed in the database; no cut-off is given here.

These results are taken from ChEMBL document CHEMBL3085654, “Synthesis and evaluation of N-acylamino acids derivatives of triazenes. Activation by tyrosinase in human melanoma cell lines” (Eur J Med Chem, 2013).

What is called half-life is the time in which the quantity being followed falls by half. The low end stands for fast loss, the high end for slow loss. By logD is commonly meant lipophilicity at a set pH, counting ionised and neutral species. In turn, `CC(=O)N[C@@H](Cc1ccc(O)cc1)C(=O)N(C)/N=N/c1ccc(Br)cc1` gave a half-life at 10 µM in [1] of 6.8 h. For the same molecule, the t1/2 in series [2] stood at 0.148 h. For the same molecule, the Stability entry in series [3] is given as “Stable”. For the same molecule, the logD at 0.5 h in series [4] turned out to be 3.36.

In the case of `CC(=O)c1ccc(/N=N/N(C)C(=O)[C@H](Cc2ccc(O)cc2)NC(=O)OC(C)(C)C)cc1`, the results for the half-life at 10 µM in [1] and in series [5] were 9.54 h and 72.2 h, respectively. Further, the Stability result in [6] was “Stable”. Moreover, the logD at 0.5 h in series [4] came to 3.85.

As to `CCOC(=O)c1ccc(/N=N/N(C)C(=O)[C@H](Cc2ccc(O)cc2)NC(C)=O)cc1`, the figures for the half-life at 10 µM in series [1] and in series [5] were 5.32 h and 70.3 h, respectively. Moreover, the t1/2 in series [2] was 0.3 h. Further, the results for the Activity entry in [7], in [8] and in series [9] were “Dose-dependent effect”, 17.46% and 21.23%, respectively. In [4], the logD at 0.5 h stood at 2.96.

In the case of `CC(=O)N[C@@H](Cc1ccc(O)cc1)C(=O)N(C)/N=N/c1ccc(C#N)cc1`, the results for the half-life at 10 µM in [1] and in [5] were 1.23 h and 42.7 h, respectively. Further, the t1/2 in series [2] came out at 0.26 h. Besides, the result in series [10] was inactive. Besides, the Activity entry is “Dose-dependent effect” in [7]; 12.47% in [11]; 8.5% in series [8]; 10.41% in series [12]; 17.01% in [9]. In addition, the logD at 0.5 h in series [4] is 2.14.

For `CN(/N=N/c1ccc(C#N)cc1)C(=O)[C@H](Cc1ccc(O)cc1)NC(=O)OC(C)(C)C`, the figures for the half-life at 10 µM in series [1] and in series [5] were 8.1 h and 48.5 h, respectively. In addition, in series [6], the Stability result is listed as “Stable”. For the same molecule, the logD at 0.5 h in [4] amounted to 3.9.

As to `COC(=O)c1ccc(/N=N/N(C)C(=O)[C@H](Cc2ccc(O)cc2)NC(C)=O)cc1`, the half-life at 10 µM in series [1] was 2.8 h; in [5] it was 75.1 h. In addition, in series [2], the t1/2 amounted to 0.305 h. In [4], the logD at 0.5 h is 2.12.

Take `CC(=O)N[C@@H](Cc1ccc(O)cc1)C(=O)N(C)/N=N/c1ccc(C(N)=O)cc1`: the half-life at 10 µM is 5.19 h in series [1] and 40.6 h in series [5]. Also, in series [2], the t1/2 was found to be 0.29 h. Further, in [4], the logD at 0.5 h stood at 1.27.

Regarding `Cn1nnc2c(C(N)=O)ncn2c1=O`, the result in series [10], in [11], in [13], in series [12] and in [14] was Active.

On to `CC(=O)N[C@@H](Cc1ccc(O)cc1)C(=O)N(C)/N=N/c1ccc(C(C)=O)cc1`, for which the half-life at 10 µM in series [1] is 1.41 h; in series [5] it was 56.6 h. Moreover, the t1/2 in [2] was 0.33 h. Further, the Activity entry was “Dose-dependent effect” in series [7], 7.88% in series [8] and 11.23% in series [9]. Moreover, the logD at 0.5 h in [4] is 2.33.

B1: Tyrosinase (Agaricus bisporus), O42713 (protein)
chain: MSLIATVGPTGGVKNRLNIVDFVKNEKFFTLYVRSLELLQAKEQHDYSSFFQLAGIHGLPFTEWAKERPSMNLYKAGYCTHGQVLFPTWHRTYLSVLEQILQGAAIEVAKKFTSNQTDWVQAAQDLRQPYWDWGFELMPPDEVIKNEEVNITNYDGKKISVKNPILRYHFHPIDPSFKPYGDFATWRTTVRNPDRNRREDIPGLIKKMRLEEGQIREKTYNMLKFNDAWERFSNHGISDDQHANSLESVHDDIHVMVGYGKIEGHMDHPFFAAFDPIFWLHHTNVDRLLSLWKAINPDVWVTSGRNRDGTMGIAPNAQINSETPLEPFYQSGDKVWTSASLADTARLGYSYPDFDKLVGGTKELIRDAIDDLIDERYGSKPSSGARNTAFDLLADFKGITKEHKEDLKMYDWTIHVAFKKFELKESFSLLFYFASDGGDYDQENCFVGSINAFRGTAPETCANCQDNENLIQEGFIHLNHYLARDLESFEPQDVHKFLKEKGLSYKLYSRGDKPLTSLSVKIEGRPLHLPPGEHRPKYDHTQARVVFDDVAVHVIN
As usually defined, the kcat/Km is the turnover number divided by the Michaelis constant. As usually defined, the Km is the concentration of substrate that gives half-maximal velocity. A word on the kcat: it is the maximal rate divided by the concentration of active sites. B1: the kcat/Km in series [15] came out at 246 M⁻¹ s⁻¹; in [16], 151 M⁻¹ s⁻¹. In addition, the Km came out at 220 µM in series [17]; 280 µM in [18]; 250 µM in series [19]; 540 µM in series [20]; 200 µM in series [21]. In addition, the Vmax in series [17] turned out to be 9.7 ×10⁻⁶ mM/min; in series [21], 5.4 ×10⁻⁶ mM/min. The kcat came to 0.05 s⁻¹ in [17] and 0.03 s⁻¹ in [21].
